In patent US20180049965A1, “ORAL CARE METHODS AND COMPOSITIONS UTILIZING CHITOSAN-DERIVATIVE COMPOUNDS” (Synedgen Inc., priority 2009, published 2018):

Key:
[1] = tested on: Streptococcus mutans ATCC 35668 biofilms; test: Immediate dispersal of stationary S. mutans biofilms, crystal violet, 1 minute treatment; format: cell-based; settings: 1.2% chlorhexidine, room temperature
Procedure: FIG. 11 depicts the immediate dispersal of Streptococcus mutans ATCC 35668 2-day old stationary biofilms treated with 100 μg/mL chitosan-arginine (43 kDa, 25% functionalized, 88% DDA, 2.28 PDI), water, or 1.2% Chlorhexidine. The biofilms were rinsed, stained with crystal violet and treated for 1 minute and rinsed.
The S. mutans biofilms were grown in 12-well untreated tissue culture plates containing BHI media supplemented with 1% sucrose for approximately 3 days. The biofilms were rinsed with water three times and stained with crystal violet for 2 minutes then rinsed three times (FIG. 11, ‘Before’). Water, 100 μg/ml chitosan-arginine or 1.2% chlorhexidine were used to treat each biofilm for 1 minute at room temperature (FIG. 11, ‘During’).

[2] = tested on: Streptococcus mutans (ATCC 35668); test: Synergy of chitosan-arginine with chlorhexidine, remaining CFU after 1 hour; format: cell-based
Procedure: Solutions of both agents were prepared at 4× their intended final concentration. Two concentrations for each agent are used for each assay and the drugs were combined in 4 ways: […] Controls of each drug alone as well as positive (S. mutans only) and negative (media only) controls were prepared. […] After incubation, the plates were centrifuged for 10 minutes at 4000 RPM on a microtiter plate rotor, before being resuspended, sonicated, diluted and plated on BHI for remaining CPU.

[H]/N=C(\N/C(=N/[H])NCCCCCCNC(=N)NC(=N)Nc1ccc(Cl)cc1)Nc1ccc(Cl)cc1 [Chlorhexidine]
biofilm after 1 minute treatment and rinsing [1]: removed from the surface | Log CFU reduction beyond most active agent ([2]; Chlorhexidine 0.00625% alone (C/A 0 μg/ml)): 1.9 Log CFU | Log CFU reduction beyond most active agent ([2]; Chlorhexidine 0.0125% alone (C/A 0 μg/ml)): 1.8 Log CFU
